# Test results as given in ChEMBL document CHEMBL1201862, “PubChem BioAssay data set” (2004).
# Active and inactive are the calls of the source.
# What was measured:
# [1] = target: Mu-type opioid receptor (Homo sapiens, UniProt P35372); format: functional, cell-based;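 further: U2OS cells with beta-arrestin recruitment to OPRM1 by beta-gal complementation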
# [2] = target: 5-hydroxytryptamine receptor 2A (Mus musculus, UniProt P35363); format: functional, cell-based;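 further: CHO-K1 cells with tagged receptor and beta-arrestin; agonist potency measured as compound-induced activation of the receptor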
# [3] = tested on: Vero; assay: Vero cell toxicity, dose response, cytotoxicity control, plate reader, cherry-pick samples (AID 687020); format: functional, cell-based; settings: Chlorocebus sabaeus
# [4] = Shn3 3'UTR reporter inhibitors, dose response, cell-based, Clone20 osteoblasts, firefly luciferase, cherry-picked (AID 624132); format: functional;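 further: firefly luciferase luminescence from reporter carrying the Shn3 3'UTR in osteoblasts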
# [5] = HepG2 cell cytotoxicity, dose response, cytotoxicity control for Shn3 inhibitor project, CellTiter-Glo, cherry-picked (AID 624134); format: functional, cell-based
# [6] = control 3'UTR Renilla luciferase suppression, dose response, counter-screen for Shn3 inhibitor project, cell-based, Clone20-Shn3RL, cherry-picked (AID 624133); format: functional
# [7] = target: T1, Low molecular weight phosphotyrosine protein phosphatase (Homo sapiens, UniProt P24666); format: functional; settings: read-out: IC50_Mean
# T1 sequence (P24666 whole entry): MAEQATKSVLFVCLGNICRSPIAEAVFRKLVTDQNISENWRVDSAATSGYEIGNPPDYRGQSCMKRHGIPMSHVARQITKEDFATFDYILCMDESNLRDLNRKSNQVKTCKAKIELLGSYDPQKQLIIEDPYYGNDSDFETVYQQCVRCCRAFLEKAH
# [8] = target: T1, Low molecular weight phosphotyrosine protein phosphatase; format: functional; settings: read-out: IC50_Mean; remark: listed apart in the source
# [9] = target: T2, Tyrosine-protein phosphatase non-receptor type 22 (Homo sapiens, UniProt Q9Y2R2); assay: LYP phosphatase inhibition for selectivity, dose response, selectivity assay for LMPTP inhibitor project, biochemical, fluorescence, LYP catalytic domain (AID 652006); format: functional; settings: read-out: IC50_Mean
# T2 sequence (Q9Y2R2 whole entry): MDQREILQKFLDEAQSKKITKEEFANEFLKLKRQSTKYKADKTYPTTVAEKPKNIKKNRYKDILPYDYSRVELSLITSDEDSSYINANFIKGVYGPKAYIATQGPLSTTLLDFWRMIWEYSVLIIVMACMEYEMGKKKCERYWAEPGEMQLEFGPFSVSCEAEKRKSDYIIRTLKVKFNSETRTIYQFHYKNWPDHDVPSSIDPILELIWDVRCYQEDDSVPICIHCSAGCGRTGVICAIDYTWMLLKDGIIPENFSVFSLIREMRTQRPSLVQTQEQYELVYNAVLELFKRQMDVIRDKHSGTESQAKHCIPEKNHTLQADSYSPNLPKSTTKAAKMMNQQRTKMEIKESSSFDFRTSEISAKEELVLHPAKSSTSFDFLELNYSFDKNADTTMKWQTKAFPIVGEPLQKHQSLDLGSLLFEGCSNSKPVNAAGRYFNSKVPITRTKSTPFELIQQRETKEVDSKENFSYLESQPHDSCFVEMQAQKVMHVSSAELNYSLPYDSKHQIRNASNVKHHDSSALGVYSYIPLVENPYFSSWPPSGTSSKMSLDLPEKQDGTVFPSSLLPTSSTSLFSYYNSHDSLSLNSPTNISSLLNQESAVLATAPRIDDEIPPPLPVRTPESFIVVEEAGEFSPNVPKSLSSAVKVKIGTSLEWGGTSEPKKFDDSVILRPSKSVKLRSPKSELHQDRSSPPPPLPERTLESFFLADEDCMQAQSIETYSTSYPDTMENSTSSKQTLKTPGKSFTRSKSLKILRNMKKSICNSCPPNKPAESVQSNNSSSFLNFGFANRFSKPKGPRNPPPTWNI
# [10] = target: ADP-ribosylation factor GTPase-activating protein 1 (Rattus norvegicus, UniProt Q62848); assay: Fluorescence polarization-based biochemical high throughput dose response screening assay to identify inhibitors of ADP-ribosylation factor GTPase activating protein 1 (ARFGAP1).; format: functional
# [11] = target: Arf-GAP with SH3 domain, ANK repeat and PH domain-containing protein 1 (Homo sapiens, UniProt Q9ULH1); format: functional;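 further: biochemical fluorescence polarization dose–response screen measuring inhibition of ASAP1; ASAP1 GAP domain stimulating GTP hydrolysis by truncated human ARF1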
# [12] = Luminescence Cell-Based Dose Confirmation HTS to Identify Activators of 5'UTR Stem-Loop Driven Alpha-Synuclein mRNA Translation in H4 Neuroglioblastoma Cells. [Related pubchem assays: 1829 (Project Summary), 1814 (Primary HTS)]; format: functional
# [13] = Luminescence Cell-Based Dose Response HTS to Identify Activators of Luciferase Translation or Activity in H4 […] Cells. [Related pubchem assays: 1829 (Project Summary), 1814 (Primary HTS)]; format: functional
# [14] = tested on: H4; assay: Luminescence Cell-Based Dose Response HTS to Identify Activators of 5'UTR Stem-Loop Driven Prion Protein mRNA Translation in H4 Neuroglioblastoma Cells. [Related pubchem assays: 1829 (Project Summary), 1814 (Primary HTS)]; format: functional; settings: Homo sapiens
# [15] = target: T3, Carboxy-terminal domain RNA polymerase II polypeptide A small phosphatase 1 (Homo sapiens, UniProt Q9GZU7); assay: inhibitors of CTDSP1, concentration-response testing, biochemical assay, absorbance-based, actives from ultra-high-throughput screening (AID 540297); format: functional
# T3 sequence (Q9GZU7 whole entry): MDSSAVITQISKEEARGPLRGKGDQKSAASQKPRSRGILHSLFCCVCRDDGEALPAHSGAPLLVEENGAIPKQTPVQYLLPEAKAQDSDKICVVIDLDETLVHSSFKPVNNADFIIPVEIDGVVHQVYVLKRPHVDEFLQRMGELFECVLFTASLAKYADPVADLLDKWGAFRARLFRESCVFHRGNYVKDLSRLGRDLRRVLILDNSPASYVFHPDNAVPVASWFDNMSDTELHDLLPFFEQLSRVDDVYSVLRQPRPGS
# [16] = target: T4, Tyrosine-protein phosphatase non-receptor type 11 (Homo sapiens, UniProt Q06124); assay: SHP2 phosphatase inhibition, dose response, selectivity assay for STEP inhibitor project, biochemical (AID 602367); format: functional; settings: read-out: IC50_Mean
# T4 sequence (Q06124 whole entry): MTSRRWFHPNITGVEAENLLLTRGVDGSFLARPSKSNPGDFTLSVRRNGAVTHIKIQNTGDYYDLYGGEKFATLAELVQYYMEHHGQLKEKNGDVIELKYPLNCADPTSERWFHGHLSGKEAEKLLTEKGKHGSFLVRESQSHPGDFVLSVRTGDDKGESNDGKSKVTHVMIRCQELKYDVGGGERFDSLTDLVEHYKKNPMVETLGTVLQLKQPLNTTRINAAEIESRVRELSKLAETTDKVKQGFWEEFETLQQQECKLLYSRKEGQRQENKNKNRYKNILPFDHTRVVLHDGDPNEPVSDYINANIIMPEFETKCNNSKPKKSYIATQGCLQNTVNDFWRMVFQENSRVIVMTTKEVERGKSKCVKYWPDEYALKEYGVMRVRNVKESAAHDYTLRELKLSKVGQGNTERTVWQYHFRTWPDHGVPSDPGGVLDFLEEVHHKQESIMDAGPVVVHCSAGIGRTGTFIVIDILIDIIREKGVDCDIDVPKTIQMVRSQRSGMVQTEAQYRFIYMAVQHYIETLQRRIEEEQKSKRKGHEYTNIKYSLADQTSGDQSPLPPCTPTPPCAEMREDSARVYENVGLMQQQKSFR
# [17] = target: T5, Tyrosine-protein phosphatase non-receptor type 5 (Homo sapiens, UniProt P54829); assay: STEP phosphatase inhibitors, confirmation, biochemical, fluorescence intensity, uHTS hits (AID 602372); format: functional; settings: read-out: IC50_Mean
# T5 sequence (P54829 whole entry): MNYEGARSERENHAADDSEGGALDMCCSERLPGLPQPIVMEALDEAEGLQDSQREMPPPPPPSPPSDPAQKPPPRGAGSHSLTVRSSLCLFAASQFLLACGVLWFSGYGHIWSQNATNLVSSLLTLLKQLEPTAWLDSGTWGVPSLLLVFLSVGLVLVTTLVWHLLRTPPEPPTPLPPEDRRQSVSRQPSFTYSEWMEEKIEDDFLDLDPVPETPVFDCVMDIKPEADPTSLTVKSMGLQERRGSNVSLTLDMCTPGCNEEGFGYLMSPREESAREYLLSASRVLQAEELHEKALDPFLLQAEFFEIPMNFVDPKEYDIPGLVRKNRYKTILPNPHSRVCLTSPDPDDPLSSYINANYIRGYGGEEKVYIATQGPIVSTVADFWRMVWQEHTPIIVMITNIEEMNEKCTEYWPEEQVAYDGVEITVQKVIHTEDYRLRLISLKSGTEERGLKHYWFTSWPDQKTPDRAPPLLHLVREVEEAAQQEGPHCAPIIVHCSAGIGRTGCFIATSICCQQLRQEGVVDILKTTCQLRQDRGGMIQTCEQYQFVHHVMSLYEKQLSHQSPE
# [18] = target: Dual specificity protein phosphatase 3 (Homo sapiens, UniProt P51452); assay: VHR phosphatase inhibition, dose response, selectivity assay for STEP inhibitor project, biochemical (AID 602374); format: functional; settings: read-out: IC50_Mean
# [19] = target: T2, Tyrosine-protein phosphatase non-receptor type 22; assay: PTPN22 phosphatase inhibition, dose response, selectivity assay for STEP inhibitor project, biochemical (AID 624241); format: functional
# [20] = target: T6, Heat shock factor protein 1 (Mus musculus, UniProt P38532); assay: inhibition of MG132-induced HSE-luciferase signal, confirmation, cell-based, NIH3T3, luminescence, dose retest (AID 2382); format: functional;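 further: NIH3T3 fibroblasts with HSF1-driven luciferase reporter stressed by proteasome inhibitor MG132; luminescence from HSF1-driven luciferase expression after 8 hours of MG132 stress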
# T6 sequence (P38532 whole entry): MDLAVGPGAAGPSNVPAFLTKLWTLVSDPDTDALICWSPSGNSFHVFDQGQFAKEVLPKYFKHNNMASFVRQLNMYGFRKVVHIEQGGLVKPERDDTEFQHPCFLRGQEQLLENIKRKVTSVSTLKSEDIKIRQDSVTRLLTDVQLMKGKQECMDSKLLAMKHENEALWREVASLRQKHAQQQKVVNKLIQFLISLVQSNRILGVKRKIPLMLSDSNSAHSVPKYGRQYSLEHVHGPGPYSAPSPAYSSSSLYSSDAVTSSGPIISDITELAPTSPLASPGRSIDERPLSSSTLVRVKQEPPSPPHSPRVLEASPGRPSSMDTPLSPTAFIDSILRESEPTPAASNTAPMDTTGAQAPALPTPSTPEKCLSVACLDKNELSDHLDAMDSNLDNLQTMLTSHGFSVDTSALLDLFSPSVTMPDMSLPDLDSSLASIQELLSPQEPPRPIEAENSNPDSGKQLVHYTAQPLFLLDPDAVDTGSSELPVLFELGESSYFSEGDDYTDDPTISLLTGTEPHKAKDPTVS
# [21] = target: Lethal factor (Bacillus anthracis, UniProt P15917); assay: High-throughput multiplex microsphere dose response for inhibitors of toxin protease, specifically Lethal Factor protease, compounds from Cherry Pick 02.; format: functional; settings: read-out: EC50_MICROM
# [22] = target: Botulinum neurotoxin type F (Clostridium botulinum, UniProt P30996); assay: High-throughput multiplex microsphere dose response for inhibitors of toxin protease, specifically Botulinum neurotoxin light chain F protease, compounds from Cherry Pick 02.; format: functional; settings: read-out: EC50_MICROM
# [23] = target: T7, Protein skinhead-1 (Caenorhabditis elegans, UniProt P34707); format: functional
# T7 sequence (P34707 whole entry): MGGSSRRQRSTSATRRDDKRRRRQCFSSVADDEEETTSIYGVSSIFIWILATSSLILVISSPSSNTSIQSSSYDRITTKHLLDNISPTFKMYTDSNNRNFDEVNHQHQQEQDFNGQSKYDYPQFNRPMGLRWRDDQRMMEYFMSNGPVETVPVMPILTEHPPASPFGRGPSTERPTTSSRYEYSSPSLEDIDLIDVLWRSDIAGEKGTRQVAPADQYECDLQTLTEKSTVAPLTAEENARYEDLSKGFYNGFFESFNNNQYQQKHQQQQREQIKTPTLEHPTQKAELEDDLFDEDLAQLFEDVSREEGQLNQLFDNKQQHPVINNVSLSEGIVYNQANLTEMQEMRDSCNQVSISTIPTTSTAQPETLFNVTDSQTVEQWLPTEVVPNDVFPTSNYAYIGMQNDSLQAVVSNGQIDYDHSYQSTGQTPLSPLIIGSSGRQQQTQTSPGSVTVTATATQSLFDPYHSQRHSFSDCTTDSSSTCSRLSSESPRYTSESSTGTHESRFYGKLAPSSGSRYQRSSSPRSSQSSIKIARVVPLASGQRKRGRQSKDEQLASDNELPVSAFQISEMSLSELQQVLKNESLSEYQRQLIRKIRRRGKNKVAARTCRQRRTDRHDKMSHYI
# [24] = target: T8, Palmitoyl-protein thioesterase ABHD10, mitochondrial (Mus musculus, UniProt Q6PE15); assay: Late stage assay provider results from the probe development effort to identify inhibitors of PME-1: fluorescence-based dose response cell-based gel-based competitive Activity-Based Protein Profiling (ABPP) inhibition of ABHD10.; format: functional
# [25] = target: T8, Palmitoyl-protein thioesterase ABHD10, mitochondrial; assay: Late stage assay provider results from the probe development effort to identify inhibitors of PME-1: fluorescence-based dose response biochemical gel-based competitive Activity-Based Protein Profiling (ABPP) inhibition of ABHD10 Set 1.; format: functional
# [26] = target: Beta-lactamase (Pseudomonas aeruginosa, UniProt Q79MP6);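 further: biochemical dose-response test of metallo-beta-lactamase enzyme inhibition, read out by epi-absorbance; purified recombinant IMP-1 metallo-beta-lactamase with nitrocefin as substrate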
# [27] = target: Beta-lactamase (Salmonella choleraesuis (strain SC-B67), UniProt Q5J463)
# [28] = cells; format: functional
# T8 sequence (Q6PE15 whole entry): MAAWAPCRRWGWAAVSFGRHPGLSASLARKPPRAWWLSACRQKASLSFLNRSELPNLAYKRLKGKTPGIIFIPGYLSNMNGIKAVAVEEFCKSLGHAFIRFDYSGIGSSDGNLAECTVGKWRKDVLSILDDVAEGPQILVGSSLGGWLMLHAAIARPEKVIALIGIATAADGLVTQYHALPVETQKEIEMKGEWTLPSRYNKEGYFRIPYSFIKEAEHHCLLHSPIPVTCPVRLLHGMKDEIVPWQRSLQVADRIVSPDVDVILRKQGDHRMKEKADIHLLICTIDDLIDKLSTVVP
# Arf-GAP with SH3 domain, ANK repeat and PH domain-containing protein 1, sequence (Q9ULH1 whole entry, the tested form may be a part): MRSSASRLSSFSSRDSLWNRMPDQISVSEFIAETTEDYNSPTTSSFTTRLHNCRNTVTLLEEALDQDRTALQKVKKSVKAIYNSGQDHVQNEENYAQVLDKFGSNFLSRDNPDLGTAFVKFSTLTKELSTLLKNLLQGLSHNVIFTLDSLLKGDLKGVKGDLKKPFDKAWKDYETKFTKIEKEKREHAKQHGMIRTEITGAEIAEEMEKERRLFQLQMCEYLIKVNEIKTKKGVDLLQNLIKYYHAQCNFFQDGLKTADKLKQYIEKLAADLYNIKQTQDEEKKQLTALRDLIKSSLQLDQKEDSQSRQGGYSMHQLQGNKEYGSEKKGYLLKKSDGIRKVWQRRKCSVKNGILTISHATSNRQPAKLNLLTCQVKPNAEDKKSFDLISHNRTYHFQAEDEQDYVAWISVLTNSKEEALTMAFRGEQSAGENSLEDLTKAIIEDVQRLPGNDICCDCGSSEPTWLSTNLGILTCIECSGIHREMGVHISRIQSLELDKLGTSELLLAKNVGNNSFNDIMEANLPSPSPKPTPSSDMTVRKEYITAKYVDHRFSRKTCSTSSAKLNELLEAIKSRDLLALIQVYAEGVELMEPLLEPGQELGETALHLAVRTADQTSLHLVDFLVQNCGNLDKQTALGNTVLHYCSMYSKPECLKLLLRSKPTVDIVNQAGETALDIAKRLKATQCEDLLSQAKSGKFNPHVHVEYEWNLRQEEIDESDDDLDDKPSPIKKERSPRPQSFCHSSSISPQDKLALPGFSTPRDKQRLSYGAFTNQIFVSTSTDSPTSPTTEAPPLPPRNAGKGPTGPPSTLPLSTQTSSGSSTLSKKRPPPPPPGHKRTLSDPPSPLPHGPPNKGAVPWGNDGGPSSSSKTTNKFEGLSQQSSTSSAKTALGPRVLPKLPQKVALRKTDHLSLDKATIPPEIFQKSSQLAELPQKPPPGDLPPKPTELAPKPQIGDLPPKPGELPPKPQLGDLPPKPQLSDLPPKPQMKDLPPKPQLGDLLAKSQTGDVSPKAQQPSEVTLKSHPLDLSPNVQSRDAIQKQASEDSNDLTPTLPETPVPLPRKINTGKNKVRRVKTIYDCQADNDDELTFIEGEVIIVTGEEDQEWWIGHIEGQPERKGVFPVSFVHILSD
# Lethal factor, sequence (P15917 whole entry): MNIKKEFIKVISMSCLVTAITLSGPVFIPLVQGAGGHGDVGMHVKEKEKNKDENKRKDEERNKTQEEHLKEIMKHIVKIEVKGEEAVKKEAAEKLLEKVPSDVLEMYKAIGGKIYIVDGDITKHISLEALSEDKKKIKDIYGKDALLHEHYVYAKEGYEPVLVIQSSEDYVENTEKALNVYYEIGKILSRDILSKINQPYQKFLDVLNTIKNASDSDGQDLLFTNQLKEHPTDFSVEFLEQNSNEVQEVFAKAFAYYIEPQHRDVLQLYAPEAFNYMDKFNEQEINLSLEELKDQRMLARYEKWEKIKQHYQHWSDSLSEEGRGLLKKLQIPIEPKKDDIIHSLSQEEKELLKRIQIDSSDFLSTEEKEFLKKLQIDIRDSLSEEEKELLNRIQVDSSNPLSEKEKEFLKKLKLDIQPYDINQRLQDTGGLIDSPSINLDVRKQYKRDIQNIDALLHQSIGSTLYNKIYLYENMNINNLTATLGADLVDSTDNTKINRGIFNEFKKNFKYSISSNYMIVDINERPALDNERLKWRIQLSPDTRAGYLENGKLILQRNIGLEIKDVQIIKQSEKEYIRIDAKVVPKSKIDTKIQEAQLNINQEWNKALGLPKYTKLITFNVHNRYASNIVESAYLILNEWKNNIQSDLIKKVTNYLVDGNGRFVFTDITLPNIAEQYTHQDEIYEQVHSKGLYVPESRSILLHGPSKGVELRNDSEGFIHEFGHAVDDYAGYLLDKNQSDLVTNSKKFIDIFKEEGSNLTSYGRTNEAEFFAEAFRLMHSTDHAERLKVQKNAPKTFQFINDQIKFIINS
# Mu-type opioid receptor, sequence (P35372 whole entry): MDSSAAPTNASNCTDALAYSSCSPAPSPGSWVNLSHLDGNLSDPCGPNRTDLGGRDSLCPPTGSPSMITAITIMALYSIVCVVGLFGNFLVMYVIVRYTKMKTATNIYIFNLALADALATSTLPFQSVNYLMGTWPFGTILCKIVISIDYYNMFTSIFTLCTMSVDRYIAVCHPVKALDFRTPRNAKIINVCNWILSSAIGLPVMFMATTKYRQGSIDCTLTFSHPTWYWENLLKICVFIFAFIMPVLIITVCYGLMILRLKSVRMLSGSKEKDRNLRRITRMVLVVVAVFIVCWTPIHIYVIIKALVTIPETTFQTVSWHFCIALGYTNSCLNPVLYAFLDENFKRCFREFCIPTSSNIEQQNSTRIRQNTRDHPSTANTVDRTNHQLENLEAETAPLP
# Dual specificity protein phosphatase 3, sequence (P51452 whole entry): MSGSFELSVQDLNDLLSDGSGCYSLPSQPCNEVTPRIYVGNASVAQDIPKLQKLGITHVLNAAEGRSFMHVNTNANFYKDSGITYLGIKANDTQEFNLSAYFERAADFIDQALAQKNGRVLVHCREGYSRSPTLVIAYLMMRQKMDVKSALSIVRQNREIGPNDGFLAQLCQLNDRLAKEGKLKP
# Botulinum neurotoxin type F, sequence (P30996 1-436 limits assumed): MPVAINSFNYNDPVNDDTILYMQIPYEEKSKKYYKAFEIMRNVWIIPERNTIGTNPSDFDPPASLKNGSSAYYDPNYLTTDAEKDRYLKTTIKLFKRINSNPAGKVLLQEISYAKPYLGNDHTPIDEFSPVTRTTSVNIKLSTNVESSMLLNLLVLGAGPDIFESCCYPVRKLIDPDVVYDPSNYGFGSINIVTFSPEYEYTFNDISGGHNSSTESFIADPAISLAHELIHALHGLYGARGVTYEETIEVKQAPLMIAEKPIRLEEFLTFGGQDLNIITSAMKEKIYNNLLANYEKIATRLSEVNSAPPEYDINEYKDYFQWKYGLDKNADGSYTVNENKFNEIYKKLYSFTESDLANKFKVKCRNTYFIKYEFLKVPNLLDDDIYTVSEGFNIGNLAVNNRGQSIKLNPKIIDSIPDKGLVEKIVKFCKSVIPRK
# ADP-ribosylation factor GTPase-activating protein 1, sequence (Q62848 whole entry, the tested form may be a part): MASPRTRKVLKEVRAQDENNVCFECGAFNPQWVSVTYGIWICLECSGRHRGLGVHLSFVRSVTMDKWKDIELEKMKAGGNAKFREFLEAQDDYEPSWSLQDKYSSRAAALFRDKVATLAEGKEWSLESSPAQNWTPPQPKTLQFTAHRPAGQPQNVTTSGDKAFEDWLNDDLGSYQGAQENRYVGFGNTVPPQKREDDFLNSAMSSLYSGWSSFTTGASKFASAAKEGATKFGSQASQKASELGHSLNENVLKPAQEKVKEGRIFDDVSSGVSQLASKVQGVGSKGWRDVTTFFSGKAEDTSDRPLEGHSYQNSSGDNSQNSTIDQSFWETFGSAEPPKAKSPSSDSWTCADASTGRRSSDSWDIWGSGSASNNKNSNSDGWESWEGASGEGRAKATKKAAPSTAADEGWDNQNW
# 5-hydroxytryptamine receptor 2A, sequence (P35363 whole entry): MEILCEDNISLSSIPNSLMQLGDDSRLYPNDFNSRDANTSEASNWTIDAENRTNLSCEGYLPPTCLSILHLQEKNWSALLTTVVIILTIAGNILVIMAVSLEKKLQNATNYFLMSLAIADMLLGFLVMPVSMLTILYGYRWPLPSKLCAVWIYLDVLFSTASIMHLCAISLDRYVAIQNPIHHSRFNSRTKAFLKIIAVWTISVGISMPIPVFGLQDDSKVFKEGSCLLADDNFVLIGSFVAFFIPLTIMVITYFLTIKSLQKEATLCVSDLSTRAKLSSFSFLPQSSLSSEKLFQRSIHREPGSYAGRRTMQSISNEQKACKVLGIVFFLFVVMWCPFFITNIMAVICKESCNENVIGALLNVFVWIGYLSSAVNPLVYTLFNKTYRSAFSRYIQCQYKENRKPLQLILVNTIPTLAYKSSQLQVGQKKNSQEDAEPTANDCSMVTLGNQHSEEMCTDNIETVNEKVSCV
# Beta-lactamase (Pseudomonas aeruginosa, UniProt Q79MP6), sequence (Q79MP6 whole entry): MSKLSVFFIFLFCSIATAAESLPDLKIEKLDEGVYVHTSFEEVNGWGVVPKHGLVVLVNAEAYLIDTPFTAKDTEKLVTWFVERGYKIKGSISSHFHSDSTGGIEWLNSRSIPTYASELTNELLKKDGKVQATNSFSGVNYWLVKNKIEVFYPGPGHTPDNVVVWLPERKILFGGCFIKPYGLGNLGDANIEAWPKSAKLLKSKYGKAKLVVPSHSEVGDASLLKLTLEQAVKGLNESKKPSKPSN
# Beta-lactamase (Salmonella choleraesuis (strain SC-B67), UniProt Q5J463), sequence (Q5J463 whole entry): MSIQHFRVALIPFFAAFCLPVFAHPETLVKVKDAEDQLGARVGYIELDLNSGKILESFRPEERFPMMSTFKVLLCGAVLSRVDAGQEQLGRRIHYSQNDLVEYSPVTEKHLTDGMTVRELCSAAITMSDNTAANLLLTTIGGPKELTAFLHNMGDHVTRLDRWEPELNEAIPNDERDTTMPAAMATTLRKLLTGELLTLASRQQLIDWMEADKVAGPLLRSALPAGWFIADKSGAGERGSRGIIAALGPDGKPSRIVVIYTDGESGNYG
compound,measurement,setting,value
O=[N+]([O-])c1cccc(CN2CCN(c3ncccn3)CC2)c1,EC50,[1],92.5 µM (inactive)
same,EC50,[2],22.3 µM (inactive)
O=C(Nc1ccccc1C(F)(F)F)C(O)(c1ccccc1)C1CCCCC1 (stereo not drawn),AC50,[3],36.8 µM (active)
COc1cccc(CNc2nc(NCC3CC3)nc3ccsc23)c1OC,AC50,[4],4.48 µM (active)
same,AC50,[5],34 µM (active)
same,AC50,[6],23.6 µM (active)
same,IC50,[7],12.3 µM (active)
same,IC50,[8],11.5 µM (active)
same,IC50,[9],33.3 µM (inactive)
Cc1ccc(OCc2ccc(C(=O)Nc3ccc(C(N)=O)cc3)o2)c([N+](=O)[O-])c1,IC50,[10],16.7 µM (inactive)
same,IC50,[11],14 µM (inactive)
N#C/C(=C\c1ccc(OC(=O)c2ccc(Cl)s2)cc1)c1nc2ccccc2[nH]1,EC50,[12],13.1 µM (active)
same,EC50,[13],19.1 µM (active)
same,EC50,[14],71.4 µM (active)
same,IC50,[15],1.77 µM (active)
same,IC50,[16],1.29 µM (active)
same,IC50,[17],16.9 µM (active)
same,IC50,[18],2.49 µM (active)
same,IC50,[19],22.9 µM (inactive)
Cc1cc2ccccc2n1CCNC(=O)C(C)C,EC50,[20],> 195 µM (not active)
same,EC50,[21],19.5 µM (active)
same,EC50,[22],> 20 µM (inactive)
same,IC50,[23],94.3 µM (inactive)
CC[C@@]1(c2ccc(C)cc2)C(=O)N(C(=O)OC(C)C)N1C(=O)OC(C)C,IC50,[24],0.028 µM (active)
same,IC50,[25],0.017 µM (active)
CCN(CC)c1ccc2cc(C(=O)NCc3ccc(F)cc3)c(=N)oc2c1,IC50,[26],> 59.6 µM (inactive)
same,IC50,[27],28.1 µM (inactive)
same,IC50,[28],2.12 µM (active)
